This assay addresses T1, recombinant guanylate cyclase reporter cell line (Rattus norvegicus, UniProt P19686+P20595).
T1 construct: expressed in transfected cells
T1 sequence (P19686 1-690): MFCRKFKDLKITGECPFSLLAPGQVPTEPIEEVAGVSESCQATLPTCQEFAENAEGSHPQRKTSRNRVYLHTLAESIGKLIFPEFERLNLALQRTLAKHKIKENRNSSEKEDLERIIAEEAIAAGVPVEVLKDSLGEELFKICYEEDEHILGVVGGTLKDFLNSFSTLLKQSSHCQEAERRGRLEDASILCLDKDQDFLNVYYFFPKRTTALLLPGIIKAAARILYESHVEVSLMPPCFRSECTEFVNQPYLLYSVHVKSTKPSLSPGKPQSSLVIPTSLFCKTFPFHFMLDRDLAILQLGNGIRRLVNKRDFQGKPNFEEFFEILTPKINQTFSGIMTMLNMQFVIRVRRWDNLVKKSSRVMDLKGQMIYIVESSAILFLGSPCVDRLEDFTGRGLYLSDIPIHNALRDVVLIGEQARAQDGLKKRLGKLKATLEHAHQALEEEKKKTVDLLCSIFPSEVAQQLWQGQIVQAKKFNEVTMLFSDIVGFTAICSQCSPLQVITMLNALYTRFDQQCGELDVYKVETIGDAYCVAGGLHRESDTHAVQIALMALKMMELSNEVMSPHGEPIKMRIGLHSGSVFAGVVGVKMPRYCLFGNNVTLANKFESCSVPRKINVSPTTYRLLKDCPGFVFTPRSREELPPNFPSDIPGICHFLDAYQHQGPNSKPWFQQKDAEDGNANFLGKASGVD
T1 sequence (P20595 1-619): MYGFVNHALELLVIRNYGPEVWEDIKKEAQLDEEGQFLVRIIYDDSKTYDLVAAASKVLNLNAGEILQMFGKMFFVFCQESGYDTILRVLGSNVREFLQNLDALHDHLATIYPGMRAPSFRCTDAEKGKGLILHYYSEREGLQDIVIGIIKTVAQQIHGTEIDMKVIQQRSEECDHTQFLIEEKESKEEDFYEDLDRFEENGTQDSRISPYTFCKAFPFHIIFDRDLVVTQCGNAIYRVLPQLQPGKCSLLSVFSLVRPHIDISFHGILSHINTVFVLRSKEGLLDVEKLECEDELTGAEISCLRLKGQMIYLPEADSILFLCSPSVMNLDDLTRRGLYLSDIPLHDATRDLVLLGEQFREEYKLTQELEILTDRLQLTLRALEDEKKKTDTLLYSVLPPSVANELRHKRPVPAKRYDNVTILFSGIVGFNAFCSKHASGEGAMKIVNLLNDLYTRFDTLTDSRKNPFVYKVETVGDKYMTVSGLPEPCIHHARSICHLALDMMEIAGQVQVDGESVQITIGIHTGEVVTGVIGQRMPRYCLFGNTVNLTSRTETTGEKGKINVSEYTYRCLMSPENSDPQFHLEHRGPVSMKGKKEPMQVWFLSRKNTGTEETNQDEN
The assay can be described thus: Effect on a recombinant guanylate cyclase reporter cell line. Particulars: MEC = minimum effective concentration; in some cases mean values for individual determinations. The class given is cell-based. As to the method: B-2. Effect on a Recombinant Guanylate Cyclase Reporter Cell Line
The cellular action of the compounds of the invention is determined using a recombinant guanylate cyclase reporter cell line, as described in F. Wunder et al., Anal. Biochem. 339, 104-112 (2005).
Representative MEC values (MEC=minimum effective concentration) for the compounds of the invention are shown in the table below (in some cases as mean values for individual determinations): […]

For `CCn1nc(C)c(NC(=O)c2c(C)nc3c(OCc4c(F)cccc4F)cccn23)c1C` [Example 38, 8-[(2,6-Difluorobenzyl)oxy]-N-(1-ethyl-3,5-dimethyl-1H-pyrazol-4-yl)-2-methylimidazo[1,2-a]pyridine-3-carboxamide], the MEC was determined as 1.0 µM.

With `Cc1noc(C)c1NC(=O)c1c(C)nc2c(OCc3c(F)cccc3F)cc(Cl)cn12` [Example 39, 6-Chloro-8-[(2,6-difluorobenzyl)oxy]-N-(3,5-dimethyl-1,2-oxazol-4-yl)-2-methylimidazo[1,2-a]pyridine-3-carboxamide], the MEC amounted to 1.0 µM.

Take `Cc1n[nH]c(C(F)(F)F)c1NC(=O)c1c(C)nc2c(OCc3c(F)cccc3F)cc(Cl)cn12` [Example 40, 6-chloro-8-[(2,6-difluorobenzyl)oxy]-2-methyl-N-[3-methyl-5-(trifluoromethyl)-1H-pyrazol-4-yl]imidazo[1,2-a]pyridine-3-carboxamide]: the MEC is 0.03 µM.

As to `Cc1n[nH]c(C)c1NC(=O)c1c(C)nc2c(OCc3c(F)cccc3F)cc(Cl)cn12` [Example 41, 6-chloro-8-[(2,6-difluorobenzyl)oxy]-N-(3,5-dimethyl-1H-pyrazol-4-yl)-2-methylimidazo[1,2-a]pyridine-3-carboxamide], the MEC is 0.1 µM.

On to `Cc1nn(CCO)c(C)c1NC(=O)c1c(C)nc2c(OCc3c(F)cccc3F)cc(Cl)cn12` [Example 42, 6-chloro-8-[(2,6-difluorobenzyl)oxy]-N-[1-(2-hydroxyethyl)-3,5-dimethyl-1H-pyrazol-4-yl]-2-methylimidazo[1,2-a]pyridine-3-carboxamide], for which the MEC was found to be 0.1 µM.

Take `Cc1nn(CC(F)(F)F)c(C)c1NC(=O)c1c(C)nc2c(OCc3c(F)cccc3F)cc(Cl)cn12` [Example 43, 6-chloro-8-[(2,6-difluorobenzyl)oxy]-N-[3,5-dimethyl-1-(2,2,2-trifluoroethyl)-1H-pyrazol-4-yl]-2-methylimidazo[1,2-a]pyridine-3-carboxamide]: the MEC is 0.03 µM.

For the compound `Cc1nc2c(OCc3c(F)cccc3F)cc(Cl)cn2c1C(=O)Nc1cnn(CC(F)(F)F)c1` [Example 44, 6-chloro-8-[(2,6-difluorobenzyl)oxy]-2-methyl-N-[1-(2,2,2-trifluoroethyl)-1H-pyrazol-4-yl]imidazo[1,2-a]pyridine-3-carboxamide], the MEC stood at 1.0 µM.

For the compound `Cc1nc2c(OCc3c(F)cccc3F)cc(Cl)cn2c1C(=O)Nc1cnn(C(C)C)c1` [Example 45, 6-chloro-8-[(2,6-difluorobenzyl)oxy]-N-(1-isopropyl-1H-pyrazol-4-yl)-2-methylimidazo[1,2-a]pyridine-3-carboxamide], the MEC is 0.3 µM.

Regarding `Cc1nc2c(OCc3c(F)cccc3F)cc(Cl)cn2c1C(=O)Nc1cnn(CCO)c1` [Example 46, 6-chloro-8-[(2,6-difluorobenzyl)oxy]-N-[1-(2-hydroxyethyl)-1H-pyrazol-4-yl]-2-methylimidazo[1,2-a]pyridine-3-carboxamide], the MEC is 0.1 µM.

Take `Cc1nc2c(OCc3c(F)cccc3F)cc(Cl)cn2c1C(=O)Nc1cn[nH]c1C` [Example 47, 6-chloro-8-[(2,6-difluorobenzyl)oxy]-2-methyl-N-(5-methyl-1H-pyrazol-4-yl)imidazo[1,2-a]pyridine-3-carboxamide + 6-chloro-8-[(2,6-difluorobenzyl)oxy]-2-methyl-N-(3-methyl-1H-pyrazol-4-yl)imidazo[1,2-a]pyridine-3-carboxamide]: the MEC amounted to 0.3 µM.

Take `Cc1n[nH]c(C)c1NC(=O)c1c(C)nc2c(OCc3c(F)cccc3F)cc(F)cn12` [Example 48, 8-[(2,6-Difluorobenzyl)oxy]-N-(3,5-dimethyl-1H-pyrazol-4-yl)-6-fluoro-2-methylimidazo[1,2-a]pyridine-3-carboxamide]: the MEC is 0.3 µM.

`Cc1n[nH]c(C)c1NC(=O)c1c(C)nc2c(OCC3CCCCC3)cccn12` [Example 49, 8-(cyclohexylmethoxy)-N-(3,5-dimethyl-1H-pyrazol-4-yl)-2-methylimidazo[1,2-a]pyridine-3-carboxamide]: the MEC worked out at 0.1 µM.

For the origin of these results see patent US20160362408A1 (Bayer Pharma Aktiengesellschaft, priority 2013, published 2016).
